Here are results for three compounds from patent publication US20210040452A1, “HEMATOPOIETIC CELLS AND METHODS OF USING AND GENERATING THE SAME” (The Regents of the University of California, priority 2015, published 2021).

Test [1] deals with wild type E11 whole AGM explants. As to the kind of experiment: AGM explant culture with DAPT, HE ratio by FACS. Format: cell-based, mouse. The text has this: Currently it is not possible to predict which specific endothelial cell within a hemogenic vascular bed will transition to a hematopoietic fate. Also not known is whether endothelial cells comprising the same hemogenic site are all capable of EHT. So whether the actual cell fate conversion is a stochastic event or a predetermined fate change remains to be seen. To circumvent the current obstacles of EHT prediction, we adopted a fate tracing strategy^48 that allows measurement of traced hematopoietic cell populations from labeled endothelial precursors within a specific hemogenic vascular site. By inducing endothelial recombination of Sox17 in AGM explants using the Cdh5(PAC)-CreERT2/RTom/Sox17flox transgenic mouse line, the number of EHT derived hematopoietic cells can be quantified through fate mapping (FIG. 13c, and FIG. 25C). Tamoxifen induction in vitro with the active metabolite 4-hydroxytamoxifen (4-OHT) at E11.0 allows immediate ablation in AGM explants during EHT, and the calculation of a HE ratio which we define as traced hematopoietic cells (HCs) compared to traced endothelial cells (ECs). […] The observed increase in HE ratios and HSPC number is not due to proliferation effects (as measured by BrdU incorporation, FIG. 25D), nor is the higher HE ratio due to changes in cell death (Annexin-V staining, supplementary FIG. 25D). We also observe increases in maturing hematopoietic populations (CD31−CD117+Sca1+Td+), FIG. 25E. In addition, when a similar strategy is applied to earlier explants (E9.5) prior to hematopoietic cell cluster emergence, we observe similar trends in the HE ratio (FIG. 25F). […] To further evaluate the role of Sox17 in this process, we undertook gain-of-function studies in wildtype AGM explants using adenoviral-mediated overexpression of human Sox17 (AdhSox17-GFP), FIG. 13g. GFP expression in explants overlapped with SOX17 co-staining (FIG. 13h), allowing for cell sorting of AGM endothelial cells (CD31+) that were either successfully infected (GFP+) or not infected (GFP−) by AdhSox17-GFP, FIG. 13i. […] We also show the known positive regulation of Notch1 by Sox17, and regulation of other SoxF family members, Sox7 and Sox18.
Whole embryos or AGMs were dissociated as described67 and stained for 30 min at 4° C. with agitation. Single cell suspensions were sorted in a BD FACS Aria III. Flow cytometric analyses were performed on a FACS Verse or FACS Aria III with FACSDiva 8.0 software (BD Biosciences) and data analyzed using FlowJo v10.0.7 (Tree Star). Gating strategy in FIG. 25C, see Table 7 for a list of antibodies.
AGMs from Cdh5(PAC)-CreERT2/R26RTd/Sox17 and Notch1 floxed embryos were dissected and cultured for 24 hrs in 4-hydroxytamoxifen 4-OHT (Sigma H7904) as previously described48, at E11 (and E9.5 for Sox17 mutants). In vivo induction was achieved by intraperitoneal injection of 0.8 mg of tamoxifen of pregnant dams at E9.5. Tamoxifen (MP Biomedical, 156738) prepared as previously described48. DAPT γ-secretase inhibitor (Sigma, D5942) was prepared in DMSO and added directly to explant culture medium at final concentrations of 25 μM, 50 μM, 100 μM, or 200 μM. For overexpression studies, AGMs were incubated with 8×10^7 adenoviral particles per milliliter at 37 C with agitation for 1 hr prior to explant culture48. Adeno-CMV-hSox17-GFP (AdhSox17-GFP) was produced by Vector Biolabs (ADV-224019, Ref Seq: BC140307).
For orientation: In flow cytometry, cells or beads pass a laser one at a time.

Test [2] relates to mouse embryos at E12.5. Put plainly: Mitotic arrest by nocodazole injection into mouse embryos. The settings on record: E12.5, 2 hrs prior to sacrifice. The format is in vivo.
In test [3] the test system is murine HSPCs. As to the kind of experiment: Addition of Tgfβ1 to newly formed murine HSPCs. The format is cell-based. The settings on record: preliminary mouse studies.

Turning to `C[C@H](NC(=O)Cc1cc(F)cc(F)c1)C(=O)N[C@H](C(=O)OC(C)(C)C)c1ccccc1` [DAPT], in test [1], the “HE ratios after AGM explants were exposed” value is recorded as “increased HE ratios”. The “HE ratio in comparison to control” value in test [1] (50-100 μM DAPT, 24 hours, control DMSO) is recorded as “significant increase”. Moreover, the “Wildtype HE ratio (DAPT), Mean” value in test [1] (WT + 25 μM, 24 hours) amounted to 0.9771; in test [1] (WT + 50 μM, 24 hours), 0.9702; in test [1] (WT + 100 μM, 24 hours), 0.9649; in test [1] (WT + 200 μM, 24 hours), 0.8264.

With `COC(=O)Nc1nc2ccc(C(=O)c3cccs3)cc2[nH]1` [nocodazole], in test [2], the “mitotic arrest in the endothelium” value is listed as “not arrested in mitosis” and the “mitotic arrest in the myocardium” value is on record as “multiple cell division arrests”.

As for Tgfβ1: transforming growth factor β1, in test [3], the “maturation of HSPCs” value is listed as “may accelerate their maturation”.
